Data published in patent publication US11731946B2, “Broad spectrum antivirulence, anti-persistence compounds” (priority 2017, dated 2023).
Like-named read-outs stand apart in the source and are kept apart here.

Key:
[1] = system: Caco2 intestinal epithelial cells; assay: Survival of Caco2 cells after compound exposure; type: cell-based; conditions: 25 μM, 3 hours exposure
MvfR regulon = assay: LC/MS quantification of HAQs and related molecules in bacterial culture supernatants; type: cell-based, P. aeruginosa; conditions: for IC50 / activity at 50 µM: Pseudomonas aeruginosa
PA14 = assay: Mouse thigh infection model (PA14); type: in vivo, mice; conditions: 10 mg/kg SC; CFUs 24 h post-infection
Description: Mice were infected with 5×10^5 and 5×10^6 PA14 cells for the thigh and lung infection model respectively. FIGS. 5A-5C: Thigh model: treatment was initiated […] and repeated at 4, 8, 12 and 18 hours. FIG. 5A: monotherapy with Compound 72, 10 mg/kg (P<0.05 Mann Whitney test); FIG. 5B-5C. Combinatorial: Compound 72 (10 mg/kg) plus Ciprofloxacin 1 mg/kg (subtherapeutic dose) (FIG. 5B: P<0.05; Figure C: P>0.05; Mann Whitney test). CFUs were assessed 24 h post-infection in the thigh (FIG. 5A), liver (FIG. 5B) and spleen (FIG. 5C). Compound 72 was administered subcutaneously and ciprofloxacin intraperitoneally (IP). […] Mice were infected with 5×10^6 PA14 cells lung infection model. Compound 54 (10 mg/kg) plus ciprofloxacin 1 mg/kg treatment (subtherapeutic dose) was initiated at 2 h post-infection and repeated at 6, 12, and 18 h post-infection. CFUs were assessed 24 h post-infection in the lung. Compound 54 was administered subcutaneously and ciprofloxacin intraperitoneally (IP).
Thigh infection studies were performed using Compounds 54 and 72.

Compound: N#Cc1ccc(NC(=O)CC(=O)Nc2ccc(Br)cc2)cc1 [Compound 54]
- toxicity to Caco2 (survival) [1]: not toxic
- IC50 (MvfR regulon; PA14, read-out: IC50 2-AA (μM)): 4.7 µM
- IC50 (MvfR regulon; PA14, read-out: IC50 DHQ (μM)): 10.1 µM
- IC50 (MvfR regulon; PA14, read-out: IC50 HHQ (μM)): 11.2 µM
- IC50 (MvfR regulon; PA14, read-out: IC50 PQS (μM)): 7.8 µM
- activity at 50 µM (MvfR regulon; read-out: 2-AA @50 uM): 5.63%
- activity at 50 µM (MvfR regulon; read-out: AA @50 uM): 701%
- activity at 50 µM (MvfR regulon; read-out: DHQ @50 uM): 10.6%
- activity at 50 µM (MvfR regulon; read-out: HHQ @50 uM (%)): 1.76%
- activity at 50 µM (MvfR regulon; read-out: HQNO @50 uM (%)): 12.5%
- IC50 (MvfR regulon; read-out: IC50 AA (increase; μM)): 11.3 µM
- IC50 (MvfR regulon; read-out: IC50 HQNO (μM)): 8.7 µM
- activity at 50 µM (MvfR regulon; read-out: PQS @50 uM (%)): 7.4%
- reduction of hydroxy-2-alkylquinoline (HAQ) and 2-AA production (MvfR regulon; liquid culture grown with 50 µM Compound 54 (FIG. 1C)): 5 to 10 fold
- bacterial CFUs at the site of infection (PA14): reduced bacterial CFUs
